Columns and labels:
Assay in all cases: cells
H-EMC-SS = format: functional, cell-based; conditions: Homo sapiens
Description: SANGER: Inhibition of human H-EMC-SS cell growth in a cell viability assay.

LAMA-84 = format: functional, cell-based; conditions: Homo sapiens;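 note: growth inhibition of LAMA-84 cells, read out with a cell viability assay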
Description: SANGER: Inhibition of human LAMA-84 cell growth in a cell viability assay.

NCI-H2029 = format: functional, cell-based; conditions: Homo sapiens;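 note: Read-out is a viability assay on the cultured cells, and IC50 is the concentration that suppresses cell growth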
Description: SANGER: Inhibition of human NCI-H2029 cell growth in a cell viability assay.

SF-539 = format: functional, cell-based, Homo sapiens; conditions: Homo sapiens, SF-539;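 note: Read-out is a cell viability assay, with IC50 reflecting inhibition of cell growth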
Description: SANGER: Inhibition of human SF539 cell growth in a cell viability assay.

TGBC11TKB = format: functional, cell-based; conditions: Homo sapiens;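 note: growth inhibition of human TGBC11TKB cells, measured by a cell viability assay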
Description: SANGER: Inhibition of human TGBC11TKB cell growth in a cell viability assay.

A3-KAW = format: functional, cell-based; conditions: Homo sapiens;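 note: growth inhibition of human A3-KAW cells, read out with a cell viability assay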
Description: SANGER: Inhibition of human A3-KAW cell growth in a cell viability assay.

HT55 = format: functional, cell-based, Homo sapiens; conditions: Homo sapiens, HT55;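 note: cell viability readout measuring growth inhibition of human HT55 cells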
Description: SANGER: Inhibition of human HT55 cell growth in a cell viability assay.

ECC10 = format: functional, cell-based; conditions: Homo sapiens;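 note: growth inhibition of ECC10 cells, read out by a cell viability assay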
Description: SANGER: Inhibition of human ECC10 cell growth in a cell viability assay.

U-87 MG = format: functional, cell-based, U-87MG ATCC; conditions: Homo sapiens;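 note: growth inhibition of the cells measured with a viability assay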
Description: SANGER: Inhibition of human U-87-MG cell growth in a cell viability assay.

ASPC1 = format: functional, cell-based, Homo sapiens; conditions: Homo sapiens, ASPC1;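 note: growth inhibition of AsPC-1 cells, read out with a cell viability assay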
Description: SANGER: Inhibition of human AsPC-1 cell growth in a cell viability assay.

HuO9 = format: functional, cell-based, Homo sapiens; conditions: Homo sapiens, HuO9;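 note: growth inhibition of HuO9 cells, read out with a cell viability assay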
Description: SANGER: Inhibition of human HuO9 cell growth in a cell viability assay.

D-566MG = format: functional, cell-based; conditions: Homo sapiens
RD = format: functional, cell-based, Homo sapiens; conditions: Homo sapiens, RD
Description: SANGER: Inhibition of human RD cell growth in a cell viability assay.

NCI-H1993 = format: functional, cell-based, Homo sapiens; conditions: Homo sapiens, NCI-H1993;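 note: growth inhibition of the cancer cell line, assessed with a cell viability assay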
Description: SANGER: Inhibition of human NCI-H1993 cell growth in a cell viability assay.

H9 = format: functional, cell-based; conditions: Homo sapiens
Description: SANGER: Inhibition of human H9 cell growth in a cell viability assay.

IGR-1 = format: functional, cell-based, Homo sapiens; conditions: Homo sapiens, IGR-1;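 note: growth inhibition of human IGR-1 cells, read out with a cell viability assay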
Description: SANGER: Inhibition of human IGR-1 cell growth in a cell viability assay.

G-401 = format: functional, cell-based, Homo sapiens; conditions: Homo sapiens, G-401
Description: SANGER: Inhibition of human G-401 cell growth in a cell viability assay.

LXF-289 cell line = format: functional, cell-based, Homo sapiens; conditions: Homo sapiens, LXF-289
Description: SANGER: Inhibition of human LXF-289 cell growth in a cell viability assay.

TE-9 = format: functional, cell-based, Homo sapiens; conditions: Homo sapiens, TE-9;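 note: cell growth inhibition, measured with a cell viability readout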
Description: SANGER: Inhibition of human TE-9 cell growth in a cell viability assay.

C2BBe1 = format: functional, cell-based, Homo sapiens; conditions: Homo sapiens, C2BBe1;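 note: growth inhibition of C2BBe1 cells, read out through a viability assay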
Description: SANGER: Inhibition of human C2BBe1 cell growth in a cell viability assay.

HCC 2998 = format: functional, cell-based, Homo sapiens; conditions: Homo sapiens, HCC 2998;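 note: growth inhibition of human HCC2998 cells, measured with a cell viability read-out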
Description: SANGER: Inhibition of human HCC2998 cell growth in a cell viability assay.

T-24 = format: functional, cell-based, Homo sapiens; conditions: Homo sapiens, T-24;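 note: growth inhibition of T-24 cells, read out with a cell viability assay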
Description: SANGER: Inhibition of human T-24 cell growth in a cell viability assay.

LB831-BLC = format: functional, cell-based, Homo sapiens; conditions: Homo sapiens, LB831-BLC;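 note: growth inhibition of LB831-BLC cells, read out with a cell viability assay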
Description: SANGER: Inhibition of human LB831-BLC cell growth in a cell viability assay.

BALL-1 = format: functional, cell-based; conditions: Homo sapiens;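 note: growth inhibition of BALL-1 cells, read out with a cell viability assay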
Description: SANGER: Inhibition of human BALL-1 cell growth in a cell viability assay.

NCI-H1092 = format: functional, cell-based; conditions: Homo sapiens;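 note: cell growth inhibition measured with a cell viability assay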
Description: SANGER: Inhibition of human NCI-H1092 cell growth in a cell viability assay.

CAL-12T = format: functional, cell-based, Homo sapiens; conditions: Homo sapiens, CAL-12T;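 note: growth inhibition of human CAL-12T cells, read out with a cell viability assay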
Description: SANGER: Inhibition of human CAL-12T cell growth in a cell viability assay.

JVM-3 = format: functional, cell-based; conditions: Homo sapiens;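 note: growth inhibition of human JVM-3 cells, read out with a cell viability assay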
Description: SANGER: Inhibition of human JVM-3 cell growth in a cell viability assay.

NCI-H2405 = format: functional, cell-based, Homo sapiens; conditions: Homo sapiens, NCI-H2405;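 note: growth inhibition of the human cell line, read out with a cell viability assay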
Description: SANGER: Inhibition of human NCI-H2405 cell growth in a cell viability assay.

23132-87 = format: functional, cell-based, Homo sapiens; conditions: Homo sapiens
Description: SANGER: Inhibition of human 23132-87 cell growth in a cell viability assay.

CP66-MEL = format: functional, cell-based, Homo sapiens; conditions: Homo sapiens, CP66-MEL;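 note: growth inhibition of CP66-MEL cells determined in a cell viability assay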
Description: SANGER: Inhibition of human CP66-MEL cell growth in a cell viability assay.

COc1cc(F)c(F)c(Nc2ccc(I)cc2F)c1NS(=O)(=O)C1(CC(O)CO)CC1 (stereo unspecified)
IC50 (H-EMC-SS): 0.917 µM | IC50 (LAMA-84): 0.318 µM | IC50 (NCI-H2029): > 5 µM | IC50 (SF-539): 2.21 µM | IC50 (TGBC11TKB): > 5 µM | IC50 (A3-KAW): > 5 µM | IC50 (HT55): 2.43 µM | IC50 (ECC10): 1.39 µM | IC50 (U-87 MG): > 5 µM | IC50 (ASPC1): 1.07 µM | IC50 (HuO9): > 5 µM | IC50 (D-566MG): 4.27 µM | IC50 (RD): 3.28 µM | IC50 (NCI-H1993): > 5 µM | IC50 (H9): 0.0201 µM | IC50 (IGR-1): > 5 µM | IC50 (G-401): 1.97 µM | IC50 (LXF-289 cell line): 3.54 µM | IC50 (TE-9): > 5 µM | IC50 (C2BBe1): 0.559 µM | IC50 (HCC 2998): 0.0869 µM | IC50 (T-24): > 5 µM | IC50 (LB831-BLC): > 5 µM | IC50 (BALL-1): > 5 µM | IC50 (NCI-H1092): > 5 µM | IC50 (CAL-12T): 1.07 µM | IC50 (JVM-3): 4.38 µM | IC50 (NCI-H2405): 1.87 µM

CCOc1nc(NC(=O)Cc2cc(OC)ccc2OC)cc(N)c1C#N
IC50 (H-EMC-SS): > 10 µM | IC50 (LAMA-84): > 10 µM | IC50 (NCI-H2029): > 10 µM | IC50 (SF-539): > 10 µM | IC50 (TGBC11TKB): > 10 µM | IC50 (A3-KAW): > 10 µM | IC50 (HT55): > 10 µM | IC50 (ECC10): > 10 µM | IC50 (U-87 MG): > 10 µM | IC50 (23132-87): > 10 µM | IC50 (ASPC1): > 10 µM | IC50 (CP66-MEL): > 10 µM | IC50 (HuO9): > 10 µM | IC50 (D-566MG): > 10 µM | IC50 (RD): > 10 µM | IC50 (NCI-H1993): > 10 µM | IC50 (H9): > 10 µM | IC50 (IGR-1): > 10 µM | IC50 (G-401): > 10 µM | IC50 (LXF-289 cell line): > 10 µM | IC50 (TE-9): > 10 µM | IC50 (C2BBe1): > 10 µM | IC50 (HCC 2998): > 10 µM | IC50 (T-24): > 10 µM | IC50 (LB831-BLC): > 10 µM | IC50 (BALL-1): > 10 µM | IC50 (NCI-H1092): > 10 µM | IC50 (CAL-12T): > 10 µM | IC50 (JVM-3): > 10 µM | IC50 (NCI-H2405): > 10 µM

COc1ccc(C2=N[C@@H](c3ccc(Cl)cc3)[C@@H](c3ccc(Cl)cc3)N2C(=O)N2CCNC(=O)C2)c(OC(C)C)c1 [NUTLIN-3]
IC50 (H-EMC-SS): 6.39 µM | IC50 (LAMA-84): > 8 µM | IC50 (NCI-H2029): > 8 µM | IC50 (SF-539): > 8 µM | IC50 (TGBC11TKB): > 8 µM | IC50 (A3-KAW): 2.62 µM | IC50 (HT55): > 8 µM | IC50 (ECC10): > 8 µM | IC50 (U-87 MG): > 8 µM | IC50 (ASPC1): > 8 µM | IC50 (HuO9): > 8 µM | IC50 (D-566MG): > 8 µM | IC50 (RD): > 8 µM | IC50 (NCI-H1993): > 8 µM | IC50 (H9): > 8 µM | IC50 (IGR-1): > 8 µM | IC50 (G-401): 3.36 µM | IC50 (LXF-289 cell line): > 8 µM | IC50 (TE-9): > 8 µM | IC50 (C2BBe1): 3.17 µM | IC50 (HCC 2998): > 8 µM | IC50 (T-24): > 8 µM | IC50 (LB831-BLC): > 8 µM | IC50 (BALL-1): > 8 µM | IC50 (NCI-H1092): > 8 µM | IC50 (CAL-12T): > 8 µM | IC50 (JVM-3): 2.59 µM | IC50 (NCI-H2405): > 8 µM

C=CCNC1=C2C[C@@H](C)C[C@H](OC)[C@H](O)[C@@H](C)/C=C(\C)[C@H](OC(N)=O)[C@@H](OC)/C=C\C=C(/C)C(=O)NC(=CC1=O)C2=O [TANESPIMYCIN]
IC50 (H-EMC-SS): > 1 µM | IC50 (LAMA-84): > 1 µM | IC50 (NCI-H2029): > 1 µM | IC50 (SF-539): 0.0668 µM | IC50 (TGBC11TKB): 0.109 µM | IC50 (A3-KAW): 0.342 µM | IC50 (HT55): > 1 µM | IC50 (ECC10): > 1 µM | IC50 (U-87 MG): 0.103 µM | IC50 (23132-87): 0.0695 µM | IC50 (ASPC1): 0.152 µM | IC50 (CP66-MEL): 0.61 µM | IC50 (HuO9): 0.0759 µM | IC50 (D-566MG): 0.0039 µM | IC50 (RD): 0.191 µM | IC50 (NCI-H1993): > 1 µM | IC50 (H9): 0.0437 µM | IC50 (IGR-1): 0.79 µM | IC50 (G-401): 0.104 µM | IC50 (LXF-289 cell line): 0.00419 µM | IC50 (TE-9): 0.218 µM | IC50 (C2BBe1): 0.222 µM | IC50 (HCC 2998): 0.0735 µM | IC50 (T-24): 0.332 µM | IC50 (LB831-BLC): 0.139 µM | IC50 (BALL-1): > 1 µM | IC50 (NCI-H1092): > 1 µM | IC50 (CAL-12T): 0.428 µM | IC50 (JVM-3): 0.638 µM | IC50 (NCI-H2405): 0.346 µM

O=C1N=C(NCc2cccs2)S/C1=C\c1ccc2ncccc2c1
IC50 (H-EMC-SS): > 5 µM | IC50 (LAMA-84): > 5 µM | IC50 (NCI-H2029): > 5 µM | IC50 (SF-539): > 5 µM | IC50 (TGBC11TKB): > 5 µM | IC50 (A3-KAW): > 5 µM | IC50 (HT55): > 5 µM | IC50 (ECC10): > 5 µM | IC50 (U-87 MG): > 5 µM | IC50 (ASPC1): > 5 µM | IC50 (HuO9): > 5 µM | IC50 (D-566MG): > 5 µM | IC50 (RD): > 5 µM | IC50 (NCI-H1993): > 5 µM | IC50 (H9): > 5 µM | IC50 (IGR-1): > 5 µM | IC50 (G-401): > 5 µM | IC50 (LXF-289 cell line): 4.22 µM | IC50 (TE-9): > 5 µM | IC50 (C2BBe1): > 5 µM | IC50 (HCC 2998): > 5 µM | IC50 (T-24): > 5 µM | IC50 (LB831-BLC): > 5 µM | IC50 (BALL-1): > 5 µM | IC50 (NCI-H1092): > 5 µM | IC50 (CAL-12T): > 5 µM | IC50 (JVM-3): > 5 µM | IC50 (NCI-H2405): 4.74 µM

CC(=O)O[C@@H]1[C@@H](OC(C)=O)[C@@H](O)[C@H](Oc2c(-c3ccc(O)cc3)oc3cc(O)cc(O)c3c2=O)O[C@H]1C
IC50 (H-EMC-SS): > 10 µM | IC50 (LAMA-84): > 10 µM | IC50 (NCI-H2029): > 10 µM | IC50 (SF-539): > 10 µM | IC50 (TGBC11TKB): > 10 µM | IC50 (A3-KAW): > 10 µM | IC50 (ECC10): > 10 µM | IC50 (U-87 MG): > 10 µM | IC50 (23132-87): > 10 µM | IC50 (ASPC1): > 10 µM | IC50 (CP66-MEL): > 10 µM | IC50 (HuO9): > 10 µM | IC50 (D-566MG): > 10 µM | IC50 (RD): > 10 µM | IC50 (NCI-H1993): > 10 µM | IC50 (H9): > 10 µM | IC50 (IGR-1): > 10 µM | IC50 (G-401): > 10 µM | IC50 (LXF-289 cell line): > 10 µM | IC50 (TE-9): > 10 µM | IC50 (C2BBe1): > 10 µM | IC50 (HCC 2998): > 10 µM | IC50 (T-24): > 10 µM | IC50 (LB831-BLC): > 10 µM | IC50 (BALL-1): > 10 µM | IC50 (NCI-H1092): > 10 µM | IC50 (CAL-12T): > 10 µM | IC50 (JVM-3): > 10 µM | IC50 (NCI-H2405): > 10 µM

COc1ccc(-c2ccc3c(N4CCOC[C@@H]4C)nc(N4CCOC[C@@H]4C)nc3n2)cc1CO [AZD-8055]
IC50 (H-EMC-SS): > 2 µM | IC50 (LAMA-84): 0.18 µM | IC50 (NCI-H2029): > 2 µM | IC50 (SF-539): 1.58 µM | IC50 (TGBC11TKB): > 2 µM | IC50 (A3-KAW): 0.297 µM | IC50 (HT55): > 2 µM | IC50 (ECC10): 0.35 µM | IC50 (U-87 MG): > 2 µM | IC50 (ASPC1): 0.738 µM | IC50 (HuO9): 0.407 µM | IC50 (D-566MG): 1.07 µM | IC50 (RD): > 2 µM | IC50 (NCI-H1993): > 2 µM | IC50 (H9): 0.0669 µM | IC50 (IGR-1): > 2 µM | IC50 (G-401): 0.31 µM | IC50 (LXF-289 cell line): 0.25 µM | IC50 (TE-9): > 2 µM | IC50 (C2BBe1): 1.17 µM | IC50 (HCC 2998): 1.93 µM | IC50 (T-24): > 2 µM | IC50 (LB831-BLC): 1.39 µM | IC50 (BALL-1): > 2 µM | IC50 (NCI-H1092): 1.13 µM | IC50 (CAL-12T): 0.78 µM | IC50 (JVM-3): 0.463 µM | IC50 (NCI-H2405): 1.15 µM
